# “Also recorded” adds a separate entry of the source.
# Assays:
# [1] = tested on: Epi/Par fat pads (white adipose tissue); test: Adipose tissue apoptosis assay, % DNA fragmentation (Example 1); type: in vivo, mice; details: 21 days
# Method: (§1) Animals: Five week old male (n=20) and female (n=20) ICR mice (Harlan Research Laboratories, Indianapolis, Ind.) were allowed to acclimate for one week prior to the experiment start date. Animals were housed singly in suspended wire cages and were provided ground rodent chow (ProLab® RMH 2500; Purina Mills, St. Louis, Mo.) and water ad libitum. Ambient room temperature was maintained and the light/dark cycle was 0600/1800 hours, respectively. Animals were cared for in accordance with the Guide for the Care and Use of Laboratory Animals (Institute of Laboratory Animal Resources Commission on Life Sciences National Research Council. Guide for the Care and Use of Laboratory Animals. National Academy of Sciences, 1996). Prior to the start of the study, animals were briefly anesthetized with isofluorane and an IPPT-200 transponder (programmable ID and temperature, BMDS, Seaford, Del.) was implanted subcutaneously between the scapulae.
# (§2) Materials: Test articles included clenbuterol (Sigma Chemical Company, St. Louis, Mo., item # C5423) and ractopamine hydrochloride—Paylean® 9 (Elanco Animal Health, Indianapolis, Ind.). Clenbuterol is available as a pure product, and ractopamine is readily available as a type A medicated article. Paylean® 9 contains about 20 g ractopamine hydrochloride per kilogram in a ground corncob base. In order to achieve doses of 200 and 800 ppm it was necessary to add about […] of product per kilogram of diet. Control and clenbuterol diets were prepared with about 80 g of alphacel, which is a diluent used to mimic the effect of the corncob in the ractopamine product. The dose of clenbuterol used in this experiment was similar to those used in previous experiments with mice (Agbenyega E T, and Wareham A C. Effect of clenbuterol on skeletal muscle atrophy in mice induced by the glucocorticoid dexamethasone. Comp Biochem Physiol Comp Physiol 1992;102:141-145, Rothwell N. J., and Stock M J. Modification of body composition by clenbuterol in normal and dystrophic (mdx) mice. Biosci Rep 1985;5:755-760, Hyltander A, Svaninger G, and Lundholm K. The effect of clenbuterol on body composition in spontaneously eating tumour-bearing mice. Biosci Rep 1993;13:325-331, Hayes A, and Williams DA. Long-term clenbuterol administration alters the isometric contractile properties of skeletal muscle from normal and dystrophin-deficient mdx mice. Clin Exp Pharmacol Physiol 1994;21:757-765, Dupont-Versteegden EE. Exercise and clenbuterol as strategies to decrease the progression of muscular dystrophy in mdx mice. J Appl Physiol 1996;80:734-741).
# DNA Isolation and Apoptosis Assay: Only the Epi and Par fat pads had sufficient tissue for the apoptosis assay. Apoptosis was assayed in two ways: DNA isolated from fat tissue was separated into two fractions: fragmented and genomic DNA. First, the fragmented DNA was run on an agarose gel in order to identify a ladder pattern of internucleosomal DNA degradation that is characteristic of apoptosis. Second, apoptosis was quantified as the ratio of fragmented- to total-DNA, multiplied by 100. Briefly, approximately 50 mg of the Epi or Par white adipose tissue was homogenized in lysis buffer (10 mM Tris-HCL, pH 8.0, 10 mM EDTA, pH 8.0; 0.5% Triton X-100) and centrifuged at 14,000× g for 15 min to separate fragmented DNA from genomic DNA. The supernatant, containing fragmented DNA, was extracted with phenol-chloroform-isoamyl alcohol (25:24:1), and the DNA was precipitated by adding polyacryl carrier (Molecular Research Center, Inc., Cincinnati, Ohio) and ethanol. Genomic (non-fragmented) DNA was extracted from the pellet with DNAzol and the polyacryl carrier. DNA in each fraction was quantified by the PicoGreen method (Molecular Probes, Inc., Eugene, Oreg.) and fluorescence was measured using a SpectroMax Gemini (Molecular Devices).
# Statistical Analysis: Analysis of variance (SAS) was used to determine significance of treatment and gender effects. […]
# serum leptin = test: Serum leptin concentration in WT and GDF-8 KO mice (Example 2); type: in vivo; details: 200 ppm in diet
# Method: Animals: Twelve-week old male (n=10) and female (n=10) GDF-8 (−/−) knockout mice and male (n=10) and female (n=10) GDF-8 (+/+) WT mice were used in the study. GDF-8 knockout mice, which were derived from the 129/SvJ mouse strain, were originally obtained from MetaMorphix Inc. and were bred in-house for the study. Mice were housed singly in suspended wire cages in a room maintained at 22±1 C and with a 12:12 hour light/dark cycle. Mice were provided ground rodent chow (ProLab® RMH 2500; Purina Mills, St. Louis, Mo.) and water ad libitum. Mice were cared for in accordance with the Guide for the Care and Use of Laboratory Animals.
# Materials: Clenbuterol (Sigma Chemical Company, St. Louis, Mo., item# C5423), was thoroughly mixed into the ground rodent chow to provide a 200 ppm concentration.
# Daily Observations: Food intake was measured daily, and body weight was measured on days 0, 3, 7, 10, 14, 17, 20, and 21 at approximately 1430 h during the treatment period. At 15 weeks of age (day 21), a final body weight measurement was obtained approximately one hour prior to euthanasia, and mice were sacrificed by decapitation following CO2 asphyxiation.
# [2] = 21 day oral (diet) treatment of mice: body weight, food intake, feed efficiency, body temperature, body composition by PIXImus densitometry (Example 1); type: in vivo; details: 21 days, ICR mice
# Method: The effects of clenbuterol, a β2-AR agonist, and ractopamine, a β1/β2-AR agonist, on growth, adiposity and adipose tissue apoptosis in male and female mice have been tested by feeding diets containing control, 200 ppm clenbuterol, or 200 or 800 ppm ractopamine. Food intake (FI) was measured daily; body weight (BW) and temperatures (BT) were measured on days 0, 3, 7, 10, 14, 17, and 20. On day 21 mice were sacrificed, body composition was determined using PIXImus densitometry, and muscle and adipose tissues were collected. There were no treatment effects on BT, FI, BW, feed efficiency or body composition. Retroperitoneal (Rp) and epididymal/parametrial (Epi/Par) fat pad masses were reduced in both 800 ppm ractopamine (40±3 and 207±20 mg, respectively) and clenbuterol (35±7 and 211±22 mg) treated mice compared to control (66±8 and 319±30 mg, p<0.05). Brown adipose tissue (BAT) mass was greater (p<0.05) in clenbuterol treated mice compared to other treatments. Adipose tissue apoptosis (% DNA fragmentation) was increased in Epi/Par fat pads in clenbuterol (5.2+1.1%) and 800 ppm ractopamine (4.1±0.8%) treated mice compared to control (1.7+0.4%, p<0.05).
# as §1, §2
# Daily Observations: Food intake was measured daily, while body weight and body temperatures were measured on days 0, 3, 7, 10, 14, 17, and 20 at approximately the same time of day (1300 hours) during the treatment period. […]
smiles,measurement,setting,value
"CC(C)(C)NCC(O)c1cc(Cl)c(N)c(Cl)c1 (stereo not shown) [Clenbuterol, clenbuterol]",Percent DNA fragmentation (apoptosis) in the Epi/Par fat pad compared to control,"[1]; 200 ppm clenbuterol, 800 ppm ractopamine in diet, p<0.05, listed as clenbuterol",increased; also recorded: significant increase in apoptosis
same,Adipose tissue apoptosis (% DNA fragmentation) in Epi/Par fat pads,"[1]; 200 ppm in diet, mice, control 1.7±0.4%",5.2 ± 1.1%
same,DNA fragmentation in retroperitoneal or inguinal fat pads,"[1]; diet, mice",Neither clenbuterol nor ractopamine treatments increased
same,Effect on serum leptin concentrations,serum leptin,did not significantly affect; also recorded: not affected
same,Serum Leptin Concentration,"serum leptin; 20 days, Mean ± SEM",3.98 ± 0.49 ng/mL
same,Cumulative Feed Intake,[2]; 200 ppm in diet,6.10 g
same,Densitometry Bone Mineral Content,[2]; 200 ppm in diet,0.65 g
same,Densitometry Fat,[2]; 200 ppm in diet,2.81 g
same,Densitometry Lean,[2]; 200 ppm in diet,26.80 g
same,Feed Efficiency,[2]; 200 ppm in diet,14.4
same,Final Body Weight,[2]; 200 ppm in diet,32.1 g
same,Weight Gain,[2]; 200 ppm in diet,8.90 g
same,"Effect on body temperature, food intake, body weight, feed efficiency, body composition",[2]; diet,not significantly affected; also recorded: Neither clenbuterol nor ractopamine affected

# From patent US20040235922A1, “Compositions and methods for inducing adipose tissue cell death” (priority 2003, published 2004)
